The format of series [1] is physicochemical. From the text:
In certain embodiments of the invention, the dry powder compositions may comprise myo-inositol (cis-1,2,3,5-trans-4,6-cyclohexanehexyl). Dry powder compositions comprising myo-inositol are disclosed in the Sievers et al U.S. Patent Application No. 2008/0035143 A1, incorporated herein in its entirety, although other myo-inositol dry powder compositions, including those generally and/or specifically disclosed herein are also suitable for use in embodiments of the present invention. Dry powder compositions comprising myo-inositol may optionally further include one or more of amino acids, for example, arginine, alanine, histidine, leucine, and/or methionine, surfactants, for example, palmitic acid, stearic acid, Tween 20, Tween 80, and/or Pluronic F68, stabilizers, buffers, for example, tricine, sodium or potassium phosphate, sodium acetate, and/or sodium citrate, metal chelating agents, for example EDTA and/or DTPA, gelatin, albumin, or the like. In one specific embodiment, myo-inositol and leucine are employed in a 98.5:1.5 weight ratio. Advantageously, myo-inositol dry powder compositions containing one or more additional components are provided using the CAN-BD process. It has been discovered that when pure myo-inositol is processed by the CAN-BD process at a temperature of about 50° C., a crystal polymorph which is different from the common crystal polymorph of native myo-inositol forms. This polymorph has an exothermic transition with onset of 110-130° C. and appears to be thermally stable at room temperature for only short periods of time (less than 2 weeks), but remains for longer periods of time when stored at temperatures of 2-8° C. (for at least 3 months and up to 5 months), and is removed by annealing at 115° C. or above. The moisture content of this new polymorph is very low (0.1% water) and identical to the moisture content of native myo-inositol. The X-ray diffraction pattern of this polymorph differs from those of native myo-inositol and a previously disclosed myo-inositol dihydrate (Bonnet 2006). […]

The next series deals with P13K. As to conditions: conclusion of Gustafson et al; cited from earlier work.
For another series, the system named is dysplastic lesions. As to conditions: three months, cited from earlier work.

For `O[C@H]1[C@H](O)[C@@H](O)[C@H](O)[C@@H](O)[C@H]1O` [crystal polymorph, myo-inositol], in series [1], the “period of thermal stability” value was “less than 2 weeks”. Moreover, the moisture content in series [1] (new polymorph, identical to native myo-inositol) is recorded as 0.1 % water. Besides, the “period for which the polymorph remains” value in series [1] (stored at 2-8° C.) is recorded as “at least 3 months”.
As to `O[C@H]1[C@H](O)[C@@H](O)[C@H](O)[C@@H](O)[C@H]1O` [myo-inositol, cis-1,2,3,5-trans-4,6-cyclohexanehexyl], the P13K inhibition result in the series with P13K is on record as “P13K inhibitor”. Also, in the series on dysplastic lesions (oral administration to the gastrointestinal tract), the maximum tolerated dose is 18 grams per day. Also, in the series with dysplastic lesions (oral, mild to moderate airway dysplasia), the “regression in dysplastic lesions” value is on record as “significant regression”.

(Values after US9895321B2, “Vaccines, methods of administering vaccines, methods and products for treating and/or delaying onset of dysplastic lesions, and wafers for oral administration” (AKTIV-DRY LLC, priority 2010, dated 2018).)
